This note sets out measurements from US12552800B2, “Compounds for diagnosis” (AC IMMUNE SA, priority 2020, dated 2026).

pKi: −log10 of the molar value.

Usually pKi stands for −log10 of the Ki, conventionally taken in molar units.

Data set [1] addresses T1, PD brain-derived a-syn aggregates (Homo sapiens, UniProt P37840).
T1 construct: from tissue; host or cells: human PD donor brain, sarkosyl-insoluble 100,000 x g pellet
Nature of the data set: Micro-radiobinding competition assay against Example-1 [^3H-1] (Table 8). Type of data set: binding. As to conditions: competition over Example-1 [^3H-1].

For data set [2], the target named is T1, PD brain-derived a-syn aggregates. Described as above. Type of data set: binding. The settings on record: human PD brain-derived a-syn aggregates; for Competition at 100 nM (%): 100 nM non-radiolabelled example compound vs Example-1 [^3H-1] ligand; for Competition at 1 μM (%): 1 μM non-radiolabelled example compound vs Example-1 [^3H-1] ligand. In short, it runs like this: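 Human PD brain-derived α-syn aggregates on microarray slides were co-incubated with 6 nM or 20 nM tritiated radioligand and unlabelled compound at 1 μM and 100 nM, some over 0.05 nM–2 μM. Bound signal read by real-time autoradiography; values are % competition, at least two technical replicates, mean of independent experiments.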

Data set [3] in a line: PK study in a healthy monkey by PET. Format: in vivo, Non-Human Primate (NHP). As to conditions: iv, 6.5 mCi. As to the method:
Non-Human Primate (NHP) was injected intravenously (iv) with the ^18F-labelled Example-1 [^18F-1] (6.5 mCi) using 1 mL ethanol and 14 mL ascorbate/saline (ascorbate solution was prepared at a concentration of 9.3 mg/mL). Monkey PET scans were performed using a Siemens Focus 220. PET acquisition started immediately before the radioactive dose was injected. Images were generated as dynamic scans for 120 minutes with head focused.

Data set [4] concerns the target T1, PD brain-derived a-syn aggregates. As to the kind of experiment: Micro-radiobinding competition assay against [^3H]-a-syn-Ref. Format: binding. As to conditions: over [^3H]-a-syn-Ref at 20 nM; example compound at 1 μM. As to the method:
The procedure was adapted from the protocol described in Spillantini et al., 1998. Frozen tissue blocks from PD donors were thawed on ice and homogenized using a glass dounce homogenizer. The homogenate was then centrifuged at 11,000×g (12,700 RPM) in an ultracentrifuge (Beckman, XL100K) for 20 minutes at 4° C. using a pre-cooled 70.1 rotor (Beckman, 342184). Pellets were resuspended in extraction buffer [10 mM Tris-HCl pH 7.4, 10% sucrose, […], 1% protease inhibitor (Calbiochem 539131), 1 mM EGTA, 1% phosphatase inhibitor (Sigma P5726 and P0044)] and centrifuged at 15,000×g (14,800 RPM, a 70.1 Ti rotor) for 20 minutes at 4° C. Pellets were discarded and sarkosyl (20% stock solution, Sigma L7414) was added to the supernatants to a final concentration of 1% at room temperature for one hour. This solution was then centrifuged at 100,000×g (38,000 RPM, 70.1 Ti rotor) for one hour at 4° C. Pellets containing enriched a-syn aggregates were resuspended in PBS and stored at −80° C. until use.
PD brain-derived a-syn aggregates were spotted onto microarray slides. The slides were incubated with the tritiated reference ligand, [^3H]-a-syn-Ref (as described in WO2017/153601) at 20 nM and the example compounds of this invention (non-radiolabelled) either at 1 μM or at increasing concentrations in the range of 50 pM to 2 μM. After incubation, slides were washed and exposed to a phosphor storage screen (GE healthcare, BAS-IP TR 2025). Following exposure, phosphor storage screens were scanned with a laser imaging system (Typhoon FLA 7000) to readout the signal from the radiobinding experiments described above. Quantification of the signal was performed using the ImageJ software package. […] All measurements were performed with at least two technical replicates.
Example compounds were assessed for their potency to compete with the binding of [3H] radiolabelled reference ligand to PD patient brain-derived a-syn aggregates. Results of the micro-radiobinding competition assay for the example compounds tested are shown in Table 5 as: % competition at 1 μM and Ki value. All measurements were performed on the same PD brain-derived a-syn aggregates.

As to `O=C1c2cn(-c3ccc(N4CC[C@@H](F)C4)nc3)nc2CN1c1cc(O)ccn1` [Example 166], the pKi in data set [1] was 7.26. Moreover, in data set [2], the “Competition at 100 nM (%)” value was found to be 72% and the “Competition at 1 μM (%)” value stood at 96%.

In turn, `O=C1c2cn(-c3ccc(N4CC[C@H](F)C4)nc3)nc2CN1c1cccnn1` [Example 151] showed a negative-log Ki (pKi) in data set [1] of 6.65. In data set [2], the “Competition at 100 nM (%)” value was determined as 51% and the “Competition at 1 μM (%)” value was 81%.

The compound `O=C1c2cn(-c3ccc(N4CCCC4)nc3)nc2CN1c1ccncc1F` [Example 113] gave a pKi in data set [1] of 7.40. Besides, in data set [2], the “Competition at 100 nM (%)” value amounted to 75% and the “Competition at 1 μM (%)” value is 91%.

With `O=C1c2cn(-c3ccc(N4CC[C@H](F)C4)nc3)nc2CN1c1cn[nH]c1` [Example 181], the pKi in data set [1] was 6.87. Moreover, in data set [2], the “Competition at 100 nM (%)” value is recorded as 67% and the “Competition at 1 μM (%)” value turned out to be 75%.

In data set [1], `Cl.O=C1c2cn(-c3ccc(N4CCCC4)nc3)nc2CN1c1cnc(F)cn1` [Example 143] had a negative-log Ki (pKi) of 8.10. Also, in data set [2], the “Competition at 100 nM (%)” value is 80% and the “Competition at 1 μM (%)” value is given as 91%.

Regarding `Cc1cncc(N2Cc3nn(-c4ccc(N5CC[C@@H](F)C5)nc4)cc3C2=O)c1` [Example 105], the negative-log Ki (pKi) in data set [1] is 6.83. In data set [2], the “Competition at 100 nM (%)” value is on record as 57% and the “Competition at 1 μM (%)” value amounted to 83%.

`O=C1c2cn(-c3ccc(N4CCOCC4)nc3)nc2CN1c1cnc(F)cn1` [Example 142] showed a pKi in data set [1] of 8.22. Also, in data set [2], the “Competition at 100 nM (%)” value turned out to be 92% and the “Competition at 1 μM (%)” value is 99%.

In data set [1], `O=C1c2cn(-c3ccc(N4CC[C@@H](F)C4)nc3)nc2CN1c1cnccn1` [Example 7] had a pKi of 8.30. In data set [2], the “Competition at 100 nM (%)” value was determined as 87% and the “Competition at 1 μM (%)” value is on record as 101%.

With `O=C1c2cn(-c3ccc(N4CC[C@@H]([18F])C4)nc3)nc2CN1c1cccnc1` [Example-1 [^18F-1]], in data set [3], the SUVmax whole brain was determined as 2.0. In addition, in data set [3] (whole brain), the “time of uptake post injection” value was 3.5 min and the “washout, peak to half peak” value turned out to be 14 min.

`O=C1c2cn(-c3ccc(N4CC[C@@H](F)C4)nc3)nc2CN1c1ccccn1` [Example 5] showed a negative-log Ki (pKi) in data set [1] of 7.59. In data set [2], the “Competition at 100 nM (%)” value is given as 68% and the “Competition at 1 μM (%)” value was found to be 98%.

In the case of `Cc1ccnc(N2Cc3nn(-c4ccc(N5CC[C@@H](F)C5)nc4)cc3C2=O)c1` [Example 80], the negative-log Ki (pKi) in data set [1] was 7.25. For the same compound, in data set [2], the “Competition at 100 nM (%)” value was 51% and the “Competition at 1 μM (%)” value came to 83%.

With `O=C1c2cn(-c3ccc(N4CC[C@@H](F)C4)nc3)nc2CN1c1ccc(O)nc1` [Example 81], in data set [1], the pKi is 6.93. In data set [2], the “Competition at 100 nM (%)” value was determined as 56% and the “Competition at 1 μM (%)” value is given as 90%.

Compound `COc1cncc(N2Cc3nn(-c4ccc(N5CC[C@@H](F)C5)nc4)cc3C2=O)c1` [Example 97] showed a pKi in data set [1] of 7.08. Besides, in data set [2], the “Competition at 100 nM (%)” value is 33% and the “Competition at 1 μM (%)” value was found to be 84%.

As to `Cc1c2c(nn1-c1ccc(N3CC[C@@H](F)C3)nc1)CN(c1ccccn1)C2=O` [Example 95], the pKi in data set [1] was 7.27. Besides, in data set [2], the “Competition at 100 nM (%)” value was 34% and the “Competition at 1 μM (%)” value was determined as 68%.

As to `O=C1c2cn(-c3ccc(N4CC[C@H](F)C4)nc3)nc2CN1c1cccnc1` [Example 3], in data set [1], the negative-log Ki (pKi) was 7.24. In addition, in data set [2], the “Competition at 100 nM (%)” value came to 45% and the “Competition at 1 μM (%)” value was determined as 89%.

`Cn1ccc(-n2cc3c(n2)CN(c2cncc(F)n2)C3=O)n1` [Example 148]: the negative logarithm of the Ki (pKi) in data set [1] was 7.40. Besides, in data set [2], the “Competition at 100 nM (%)” value stood at 77% and the “Competition at 1 μM (%)” value was found to be 91%.

For `Nc1ccc(N2Cc3nn(-c4ccc(N5CCCC5)nc4)cc3C2=O)cc1F` [Example 50], in data set [1], the negative-log Ki (pKi) is 8.10. Further, in data set [2], the “Competition at 100 nM (%)” value is listed as 94% and the “Competition at 1 μM (%)” value worked out at 103%.

`O=C1c2cn(-c3ccc(N4CC[C@@H](F)C4)nc3)nc2CN1c1ncccc1O` [Example 167] had a pKi in data set [1] of 7.25. Moreover, in data set [2], the “Competition at 100 nM (%)” value turned out to be 68% and the “Competition at 1 μM (%)” value stood at 93%.

Turning to `O=C1c2cn(-c3ccc(N4CCCC4)nc3)nc2CN1c1cncc(F)c1` [Example 99], the negative logarithm of the Ki (pKi) in data set [1] is 7.09. Further, in data set [2], the “Competition at 100 nM (%)” value is on record as 56% and the “Competition at 1 μM (%)” value was 92%.

Consider `COc1cncc(N2Cc3nn(-c4ccc(N5CC[C@H](F)C5)nc4)cc3C2=O)c1` [Example 98], for which the negative logarithm of the Ki (pKi) in data set [1] is 7.05. Also, in data set [2], the “Competition at 100 nM (%)” value came out at 38% and the “Competition at 1 μM (%)” value was 76%.

Turning to `O=C1c2cn(-c3ccc(N4CC[C@H](F)C4)nc3)nc2CN1c1ccc(O)nc1` [Example 101], in data set [1], the pKi was 6.51. Further, the “Competition at 1 μM (%)” value in data set [2] turned out to be 75%.

In data set [1], `O=C1c2cn(-c3ccc(N4CC[C@H](F)C4)nc3)nc2CN1c1ccc(F)cc1` [Example 64] gave a pKi of 8.70. Also, in data set [2], the “Competition at 100 nM (%)” value is 54% and the “Competition at 1 μM (%)” value came out at 95%.

In data set [1], `O=C1c2cn(-c3ccc(N4CC[C@H](F)C4)nc3)nc2CN1c1cccc(O)n1` [Example 163] had a pKi of 7.17. Further, in data set [2], the “Competition at 100 nM (%)” value was determined as 49% and the “Competition at 1 μM (%)” value came to 99%.

Take `O=C1c2cn(-c3ccc(N4CC[C@H](F)C4)nc3)nc2CN1c1ncccn1` [Example 18]: the negative-log Ki (pKi) in data set [1] was 6.95. In addition, in data set [2], the “Competition at 100 nM (%)” value worked out at 23% and the “Competition at 1 μM (%)” value was 86%.

In data set [1], `Cc1cncc(N2Cc3nn(-c4ccc(N5CC[C@H](F)C5)nc4)cc3C2=O)c1` [Example 108] gave a pKi of 6.74. For the same compound, in data set [2], the “Competition at 100 nM (%)” value is listed as 54% and the “Competition at 1 μM (%)” value worked out at 81%.

In data set [1], `O=C1c2cn(-c3ccc(N4CC[C@H](F)C4)nc3)nc2CN1c1ccnnc1` [Example 19] showed a pKi of 7.13. Further, in data set [2], the “Competition at 100 nM (%)” value is 23% and the “Competition at 1 μM (%)” value came to 83%.

Turning to `O=C1c2cn(-c3ccc(N4CC[C@@H](F)C4)nc3)nc2CN1c1ccncc1` [Example 2], the entries for the “Competition at 1 μM (%)” value in data set [4] and in data set [2] were 68% and 98%, respectively. The compound also had a negative-log Ki (pKi) in data set [1] of 8.15. In addition, the “Competition at 100 nM (%)” value in data set [2] stood at 72%.

Turning to `O=C1c2cn(-c3ccc(N4CC[C@@H](F)C4)nc3)nc2CN1c1cncc(F)c1` [Example 91], the negative logarithm of the Ki (pKi) in data set [1] was 7.38. For the same compound, in data set [2], the “Competition at 100 nM (%)” value is reported as 44% and the “Competition at 1 μM (%)” value is listed as 84%.

For `COc1ccc(N2Cc3nn(-c4ccc(N5CC[C@@H](F)C5)nc4)cc3C2=O)cc1` [Example 27], the negative-log Ki (pKi) in data set [1] was 7.89. In data set [2], the “Competition at 100 nM (%)” value is listed as 87% and the “Competition at 1 μM (%)” value worked out at 99%.
